Experimental data from patent US9686989B2, “Synergistic combination of a flurochloridone compound and zinc pyrithione for dry film protection” (Rohm and Haas Company, priority 2013, dated 2017).

Tested on: Chlorella sp. ATCC 7516
Assay: Algal efficacy testing of dry paint film (modified ASTM 5589, 6-well plates)
Assay type: cell-based
Conditions: 672 h, 4 weeks, pass level ≧75% inhibition
Experimental: Slurries containing 33% antimicrobial active ingredient (flurochloridone) were post added to a white, acrylic/silicone based outdoor paint free of biocides to give a total active ingredient concentration of 10000 and 1000 ppm respectively. KATHON™ 893T (100% OIT) was post added to a white, acrylic/silicone based outdoor paint free of biocides to give a total active ingredient concentration of 10000 and 1000 ppm respectively. These paints were then diluted with an antimicrobial free acrylic/silicone based paint and mixed to prepare targeted concentrations of antimicrobial compounds for the testing. The total biocides concentrations tested were 125, 250, 500, 1000, 2000 and 5000 ppm. After biocides addition or dilution, the paints were mixed 90 seconds with the horse power shaker (AXEL 75M3372/Agitateur SO-10MI) until uniformity was achieved. […]
Each well that contains a tested coupon was inoculated with 1750 μl of algal suspensions (1×10^6 cfu/ml) making sure that the whole surface (paint film as well as the agar surrounding it) was evenly covered. […] The total area inhibited was evaluated at the end of each week according to percent area covered in 5% increments
At the end of the four week incubation period, the samples were scored for percent inhibition regarding color intensity compared to the blank sample. […]
The SI is calculated based on F. C. […]

| Compound | inhibition at 5000 ppm (total conc 5000 ppm in paint) [%] | inhibition at 2000 ppm (total conc 2000 ppm in paint) [%] |
| --- | --- | --- |
| O=C1C(Cl)C(CCl)CN1c1cccc(C(F)(F)F)c1 (centres unmarked) [Flurochloridone, 3-chloro-4-(chloromethyl)-1-[3-(trifluoromethyl)phenyl]-2-pyrrolidinone] | 90 |  |
| CCCCCCCCn1sccc1=O [OIT, 2-n-octyl-4-isothiazolin-3-one] |  | 65 |
